According to patent US9212348B2, “Method for producing hematopoietic stem cells using pyrazole compounds” (NISSAN CHEMICAL INDUSTRIES, LTD., priority 2010, dated 2015):

Legend:
CD34+CD38- cells = test: Assay Example 3: expansion of CD34+CD38- cells using human cord blood-derived CD34+ cells (Table 22); format: cell-based; conditions: based on number of CD34+CD38- cells in absence of compound; 0.01 to 10 μg/mL compound; 100 ng/mL SCF and 20 ng/mL TPO; 7 days
Experimental: Human cord blood-derived CD34^+ cells purchased from the same supplier as in Assay Example 1 were plated on a 24-well plate (Corning) (10000 cells/1 mL/well). As the culture medium, StemSpan SFEM (StemCell Technologies) containing 100 ng/mL SCF (Wako Pure Chemical Industries) in terms of final concentration and 20 ng/mL TPO (PeproTech) in terms of final concentration was used, and Compounds Nos. 1-01 to 4-91 dissolved in dimethyl sulfoxide were added in an amount of 0.1% (v/v) to a final concentration of 0.01 to 10 μg/mL. As a negative control, the medium containing 0.1% (v/v) dimethyl sulfoxide was used.
After the cells were incubated in liquid culture at 37° C. for 7 days in a CO2 incubator (5% CO2), the number of viable cells was counted by trypan blue assay. The number of CD34^+CD38^− cells was calculated in the same manner as in Assay Example 1.

melting point [°C] | Compound | Expansion efficiency (CD34+CD38- cells)
– | COC(=O)c1ccc(-c2c(C(C)C)nn(C(C)(C)Cc3ccccc3)c2O)cc1 [Compound No. 4-23, methyl 4-(5-hydroxy-3-isopropyl-1-(2-methyl-1-phenylpropan-2-yl)-1H-pyrazol-4-yl)benzoate] | A (A for expansion efficiencies of 4 or greater)
– | COC(=O)CC1=NN(C(C)(C)c2ccccc2)C(=O)C1 [Compound No. 4-01, methyl 2-(5-oxo-1-(2-phenylpropan-2-yl)-4,5-dihydro-1H-pyrazol-3-yl)acetate] | C (C for expansion efficiencies of at least 1.5 and less than 3)
– | CC(C)C1=NN(C(C)(C)Cc2ccc(Br)cc2)C(=O)C1 [Compound No. 3-12, 1-(1-(4-bromophenyl)-2-methylpropan-2-yl)-3-isopropyl-1H-pyrazol-5(4H)-one] | B (B for expansion efficiencies of at least 3 and less than 4)
– | CC(C)C1=NN(C(C)(C)Cc2ccccc2)C(=O)C1Br (stereo not shown) [Compound No. 3-47, 4-bromo-3-isopropyl-1-(2-methyl-1-phenylpropan-2-yl)-1H-pyrazol-5(4H)-one] | C (C for expansion efficiencies of at least 1.5 and less than 3)
– | CCCCCCc1ccc(-c2c(C(C)C)nn(C(C)(C)Cc3ccc(C)cc3)c2O)cc1 [Compound No. 3-07, 4-(4-hexylphenyl)-3-isopropyl-1-(2-methyl-1-p-tolylpropan-2-yl)-1H-pyrazol-5-ol] | A (A for expansion efficiencies of 4 or greater)
– | CON=C(C)c1c(C(C)C)nn(C(C)(C)Cc2ccccc2)c1O [Compound No. 4-89, 1-(5-Hydroxy-3-isopropyl-1-(2-methyl-1-phenylpropan-2-yl)-1H-pyrazol-4-yl)ethanone O-methyl oxime] | C (C for expansion efficiencies of at least 1.5 and less than 3)
149 to 151 | CCCCCCc1ccc(-c2cnn(C(C)(C)Cc3ccc(C)cc3)c2O)cc1 [Compound No. 4-90, 4-(4-Hexylphenyl)-1-(2-methyl-1-(p-tolyl)propan-2-yl)-1H-pyrazol-5-ol] | –
– | CC(C)(Cc1ccccc1)N1N=C(c2ccccc2)CC1=O [Compound No. 3-16, 1-(2-methyl-1-phenylpropan-2-yl)-3-phenyl-1H-pyrazol-5(4H)-one] | A (A for expansion efficiencies of 4 or greater)
140 to 142 | CCCCCCc1ccc(-c2c(C#N)nn(C(C)(C)Cc3ccc(C)cc3)c2O)cc1 [Compound No. 4-86, 4-(4-Hexylphenyl)-5-hydroxy-1-(2-methyl-1-(p-tolyl)propan-2-yl)-1H-pyrazole-3-carbonitrile] | C (C for expansion efficiencies of at least 1.5 and less than 3)
